Test results published in patent US11691972B2, “Compounds for targeted degradation of BRD9” (C4 Therapeutics, Inc., priority 2020, dated 2023).
Read-outs that look alike come from different tables or passages of the source.

Legend:
[1] = tested on: BAF wildtype synovial sarcoma cells (SW982); assay: Confluence (growth) over time in SW982 cells; format: cell-based, human; details: various concentrations, FIG. 17
BRD9 [2] = target: T1, BRD9 (Homo sapiens, UniProt Q9H8M2); assay: Western blot of endogenous BRD9 degradation in A204, HS-SY-II, SW982 and Yamato SS cells; format: cell-based; parameters: endogenous in cells; host or cells: Yamato-SS (human synovial sarcoma); details: SW982, Yamato SS cells, 6 hours, FIG. 15
T1 sequence (Q9H8M2 1-597): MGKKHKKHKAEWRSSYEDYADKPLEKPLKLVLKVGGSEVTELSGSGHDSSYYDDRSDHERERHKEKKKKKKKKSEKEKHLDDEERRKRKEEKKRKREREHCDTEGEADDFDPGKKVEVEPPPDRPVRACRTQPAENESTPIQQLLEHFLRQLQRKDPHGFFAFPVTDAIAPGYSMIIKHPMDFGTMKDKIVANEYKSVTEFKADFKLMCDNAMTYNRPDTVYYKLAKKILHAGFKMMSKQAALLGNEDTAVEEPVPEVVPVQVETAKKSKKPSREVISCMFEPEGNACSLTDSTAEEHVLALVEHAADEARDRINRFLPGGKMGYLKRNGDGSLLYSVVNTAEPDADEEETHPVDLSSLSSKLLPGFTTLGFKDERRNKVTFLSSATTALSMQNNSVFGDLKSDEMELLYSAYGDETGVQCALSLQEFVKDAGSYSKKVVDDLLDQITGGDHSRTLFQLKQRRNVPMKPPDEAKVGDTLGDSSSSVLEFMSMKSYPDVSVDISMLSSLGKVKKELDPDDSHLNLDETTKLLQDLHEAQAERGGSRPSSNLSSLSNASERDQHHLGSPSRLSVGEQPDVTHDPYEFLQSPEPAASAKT
Method: The top left represents the malignant human rhabdoid tumor (A204), top right represents the human synovial sarcoma (HS-SY-II), the bottom left represents human soft tissue sarcoma (SW982, BAF wildtype) and the bottom right represents synovial sarcoma (Yamato SS), all via western blot.
Cells were plated at 500,000 cells/well in a 6-well plate and allowed to adhere for 16 hours. Each cell line was treated with Compound 176 serially diluted in DMSO for 6 hours. Cell pellets were collected, lysed with RIPA lysis buffer in the presence of protease inhibitors, and run on a 4-12% acrylamide gel for 45 minutes at 150V. Proteins were transferred to a nitrocellulose membrane and incubated with antibodies against BRD9 (1:1000; Cell Signaling Technology, #71232) or Vinculin (1:10,000; EMD, 05-386) overnight with agitation at 4° C. Blots were thrice washed with tris-buffered saline+0.05% tween-20 and incubated with host-directed fluorescently-conjugated antibodies for 1 hour at room temperature. Blots were thrice washed and imaged on a LiCor Odyssey CLx.

[3] = Body weight change in synovial sarcoma PDX model (SA13412); format: in vivo, mice; details: 50 mg/kg once a day, 25 mg/kg twice a day, 16.6 mg/kg three times a day, FIG. 24
Excerpt: The x axis is treatment measured in days and the y axis is body weight change measured in percentage. Less than 15% loss of body weight was observed on average.

BRD9 [4] = target: BRD9 (Rattus norvegicus, UniProt D4ACF5); assay: BRD9 degradation in rat cells (24 h); format: cell-based
BRD9 [5] = target: T1, BRD9; assay: BRD9 binding (Ki)
CYP 2C8 = CYP 2C8 (Homo sapiens, UniProt P10632); assay: CYP inhibition 2C8; format: in vitro ADME
SA13412 = assay: Synovial sarcoma patient derived xenograft (PDX) model (SA13412), tumor volume; format: in vivo, mice; details: 40 mg/kg orally once a day, 20 days of treatment
Method: The x-axis is days after start of treatment measured in days and the y-axis is tumor volume measured in mm^3. The mice were dosed with 40 mg/kg of Compound 172 orally once a day. […] The x axis is treatment measured in days and the y axis is mean tumor volume+SEM measured in cubic millimeters (mm^3). Compound 176 was dosed at 50 mg/kg once a day, 25 mg/kg twice a day, and 16.6 mg/kg three times a day.

BRD9 [6] = target: BRD9 (Mus musculus, UniProt Q3UQU0); assay: BRD9 degradation in mouse cells (24 h); format: cell-based
CYP 2E1 = CYP 2E1 (Homo sapiens, UniProt P05181); assay: CYP inhibition 2E1; format: in vitro ADME
BRD9 [7] = target: T1, BRD9; assay: Western blot, in-vivo BRD9 degradation in ASKA-SS tumors; parameters: inoculated subcutaneously into BALB/c nude mice at the right flank for tumor development; from tissue; host or cells: Yamato-SS xenograft tumours in BALB/c nude mice; species or system BALB/c nude mice; details: single dose 10 or 75 mg/kg PO, FIG. 13
Method: ASKA-SS cells were maintained in vitro until exponential growth phase and inoculated subcutaneously into BALB/c nude mice at the right flank for tumor development. Mice were treated with single dose of Compound 172 at 10 or 75 mg/kg PO. Tumor were collected at indicated time points and snap frozen until lysis. Tumors were ground and lysed in RIPA Buffer containing 2× protease/phosphatase inhibitor using a freeze grinder at 50 Hz for 5 minutes. Protein concentrations were determined by Pierce™ BCA Protein Assay Kit. Samples were diluted to appropriate concentrations and run in a western blot.

CYP 2C9 = CYP 2C9 (Homo sapiens, UniProt P11712); assay: CYP inhibition 2C9; format: in vitro ADME
CYP 2C19 = CYP 2C19 (Homo sapiens, UniProt P33261); assay: CYP TDI (time-dependent inhibition); format: in vitro ADME
GSPT1 = GSPT1 (Homo sapiens, UniProt P15170); assay: GSPT1 degradation; format: cell-based; details: one value given for IKZF1/SALL4/GSPT1
BRD9 [8] = target: T1, BRD9; assay: Western blot of BRD9, BRD4 and BRD7 in Yamato-SS cells; format: cell-based; parameters: endogenous in cells; host or cells: Yamato-SS (human synovial sarcoma); details: FIG. 3
Method: After treatment cells were collected, lysed in RIPA buffer supplemented with 2× proteasome/protease inhibitor, and protein concentrations were determined by Pierce™ BCA Protein Assay Kit. Samples were diluted to appropriate concentrations and run in a western blot.

Sequence of BRD9 (Mus musculus, UniProt Q3UQU0) (Q3UQU0 whole entry): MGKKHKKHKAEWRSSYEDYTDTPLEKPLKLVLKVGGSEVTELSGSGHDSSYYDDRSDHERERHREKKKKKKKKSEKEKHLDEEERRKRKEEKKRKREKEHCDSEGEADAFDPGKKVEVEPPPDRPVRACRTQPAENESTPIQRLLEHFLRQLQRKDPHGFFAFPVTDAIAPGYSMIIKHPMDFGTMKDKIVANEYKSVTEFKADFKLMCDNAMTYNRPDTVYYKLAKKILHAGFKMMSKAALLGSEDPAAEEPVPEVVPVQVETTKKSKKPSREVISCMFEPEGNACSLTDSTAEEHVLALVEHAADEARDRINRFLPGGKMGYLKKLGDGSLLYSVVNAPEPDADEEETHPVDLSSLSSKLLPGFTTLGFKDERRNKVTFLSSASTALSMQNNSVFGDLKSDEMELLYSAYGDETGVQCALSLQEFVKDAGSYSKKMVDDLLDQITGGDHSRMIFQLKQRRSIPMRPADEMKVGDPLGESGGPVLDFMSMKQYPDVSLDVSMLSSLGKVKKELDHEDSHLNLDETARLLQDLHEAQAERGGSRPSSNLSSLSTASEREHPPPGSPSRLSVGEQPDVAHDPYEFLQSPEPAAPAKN
Sequence of BRD9 (Rattus norvegicus, UniProt D4ACF5) (D4ACF5 1-761): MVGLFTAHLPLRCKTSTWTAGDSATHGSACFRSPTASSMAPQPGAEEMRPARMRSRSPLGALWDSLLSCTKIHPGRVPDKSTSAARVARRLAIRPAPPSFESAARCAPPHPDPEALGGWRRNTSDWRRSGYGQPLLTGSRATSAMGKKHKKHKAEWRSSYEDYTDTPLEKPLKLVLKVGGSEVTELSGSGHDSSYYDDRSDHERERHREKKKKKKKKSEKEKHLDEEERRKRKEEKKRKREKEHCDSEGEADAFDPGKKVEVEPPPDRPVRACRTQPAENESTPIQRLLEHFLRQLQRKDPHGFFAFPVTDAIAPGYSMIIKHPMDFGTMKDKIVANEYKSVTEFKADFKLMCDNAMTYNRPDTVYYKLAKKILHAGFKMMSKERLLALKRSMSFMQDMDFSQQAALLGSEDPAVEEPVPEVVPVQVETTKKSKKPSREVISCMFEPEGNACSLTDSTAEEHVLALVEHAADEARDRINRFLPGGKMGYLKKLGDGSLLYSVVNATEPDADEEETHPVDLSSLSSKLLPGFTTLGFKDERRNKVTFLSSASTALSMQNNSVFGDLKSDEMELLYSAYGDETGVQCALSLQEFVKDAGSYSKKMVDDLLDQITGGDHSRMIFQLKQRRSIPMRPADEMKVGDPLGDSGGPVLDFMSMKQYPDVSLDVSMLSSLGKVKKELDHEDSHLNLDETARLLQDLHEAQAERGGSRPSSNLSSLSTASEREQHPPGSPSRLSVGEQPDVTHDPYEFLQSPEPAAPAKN
Sequence of CYP 2C19 (P33261 whole entry): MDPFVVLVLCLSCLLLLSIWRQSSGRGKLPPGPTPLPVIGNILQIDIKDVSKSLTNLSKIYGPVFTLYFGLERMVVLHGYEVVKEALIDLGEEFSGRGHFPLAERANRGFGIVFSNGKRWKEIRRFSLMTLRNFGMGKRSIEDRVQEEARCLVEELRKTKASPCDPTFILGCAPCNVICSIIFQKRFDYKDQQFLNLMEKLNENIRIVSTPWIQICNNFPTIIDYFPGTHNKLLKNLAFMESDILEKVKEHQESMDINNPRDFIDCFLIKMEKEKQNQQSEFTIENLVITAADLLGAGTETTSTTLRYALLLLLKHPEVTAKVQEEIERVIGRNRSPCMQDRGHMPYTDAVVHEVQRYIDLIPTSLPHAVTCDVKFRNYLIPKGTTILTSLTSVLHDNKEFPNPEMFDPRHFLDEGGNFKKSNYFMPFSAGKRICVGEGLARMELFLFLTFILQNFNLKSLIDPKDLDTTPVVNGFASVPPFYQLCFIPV
Sequence of CYP 2E1 (P05181 whole entry): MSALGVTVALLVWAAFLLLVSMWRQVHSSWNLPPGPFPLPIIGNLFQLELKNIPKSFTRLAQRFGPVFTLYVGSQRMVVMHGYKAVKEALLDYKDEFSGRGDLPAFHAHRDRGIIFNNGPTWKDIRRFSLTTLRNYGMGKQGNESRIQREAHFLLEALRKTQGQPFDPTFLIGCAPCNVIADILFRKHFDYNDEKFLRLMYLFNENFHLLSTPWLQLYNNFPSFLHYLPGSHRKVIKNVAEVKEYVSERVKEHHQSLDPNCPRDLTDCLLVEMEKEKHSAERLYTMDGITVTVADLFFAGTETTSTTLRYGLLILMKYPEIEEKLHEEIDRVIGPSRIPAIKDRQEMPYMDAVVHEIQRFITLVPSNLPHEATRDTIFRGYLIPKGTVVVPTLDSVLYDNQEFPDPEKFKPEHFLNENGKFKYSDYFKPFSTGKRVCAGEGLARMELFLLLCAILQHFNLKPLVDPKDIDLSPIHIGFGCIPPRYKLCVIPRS
Sequence of CYP 2C8 (P10632 whole entry): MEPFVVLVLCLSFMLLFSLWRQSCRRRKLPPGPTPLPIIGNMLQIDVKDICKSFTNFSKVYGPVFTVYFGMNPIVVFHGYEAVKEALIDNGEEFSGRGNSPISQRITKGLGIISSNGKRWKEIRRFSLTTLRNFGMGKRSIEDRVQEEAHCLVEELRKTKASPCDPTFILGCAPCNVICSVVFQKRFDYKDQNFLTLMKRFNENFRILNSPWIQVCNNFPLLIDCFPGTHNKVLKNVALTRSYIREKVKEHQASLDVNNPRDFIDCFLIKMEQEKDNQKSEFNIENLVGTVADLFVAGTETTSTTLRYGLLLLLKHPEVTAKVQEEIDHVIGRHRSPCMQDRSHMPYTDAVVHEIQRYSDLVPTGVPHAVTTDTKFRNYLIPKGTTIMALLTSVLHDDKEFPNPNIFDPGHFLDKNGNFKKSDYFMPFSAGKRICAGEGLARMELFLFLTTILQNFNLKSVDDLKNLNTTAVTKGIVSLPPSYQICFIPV
Sequence of GSPT1 (P15170 whole entry, species assumed): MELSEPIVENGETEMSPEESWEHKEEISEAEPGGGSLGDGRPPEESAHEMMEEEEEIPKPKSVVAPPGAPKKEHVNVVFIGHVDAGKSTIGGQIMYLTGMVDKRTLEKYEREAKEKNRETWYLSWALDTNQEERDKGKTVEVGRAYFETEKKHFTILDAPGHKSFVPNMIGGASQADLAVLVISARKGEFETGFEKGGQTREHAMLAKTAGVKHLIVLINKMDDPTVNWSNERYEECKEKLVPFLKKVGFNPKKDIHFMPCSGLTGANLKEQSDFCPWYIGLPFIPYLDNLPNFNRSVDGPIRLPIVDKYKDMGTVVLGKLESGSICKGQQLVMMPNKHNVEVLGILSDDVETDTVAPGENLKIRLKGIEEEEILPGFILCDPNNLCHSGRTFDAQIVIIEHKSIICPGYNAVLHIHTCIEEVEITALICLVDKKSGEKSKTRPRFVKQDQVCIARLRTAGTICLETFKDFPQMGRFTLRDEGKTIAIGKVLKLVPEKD
Sequence of CYP 2C9 (P11712 whole entry): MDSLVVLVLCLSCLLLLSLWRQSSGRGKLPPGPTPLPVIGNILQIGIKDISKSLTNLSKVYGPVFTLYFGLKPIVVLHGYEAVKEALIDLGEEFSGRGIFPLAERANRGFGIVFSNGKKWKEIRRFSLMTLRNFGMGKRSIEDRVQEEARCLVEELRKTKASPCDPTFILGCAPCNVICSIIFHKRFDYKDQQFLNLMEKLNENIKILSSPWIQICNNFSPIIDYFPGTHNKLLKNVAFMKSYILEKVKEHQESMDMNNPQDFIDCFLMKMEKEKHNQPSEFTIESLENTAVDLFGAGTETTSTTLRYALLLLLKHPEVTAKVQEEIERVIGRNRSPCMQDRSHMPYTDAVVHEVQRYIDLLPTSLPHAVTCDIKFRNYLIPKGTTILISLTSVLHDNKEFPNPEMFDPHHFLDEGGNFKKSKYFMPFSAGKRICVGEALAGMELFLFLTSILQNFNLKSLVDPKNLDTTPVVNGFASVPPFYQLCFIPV

Row | SMILES | confluence as a percentage of control over time [1] | degradation of alpha BRD9, western blot (BRD9 [2]) | loss of body weight on average [3] | BRD9 degradation rat cells (24 h), percent (BRD9 [4]) | DC50 (BRD9 [4]; read-out: BRD9 degradation rat cells (24 h), concentration) | Ki (BRD9 [5]) | IC50 (CYP 2C8) | tumor volume, PDX model (SA13412) (SA13412) | BRD9 degradation mouse cells (24 h), percent (BRD9 [6]) | DC50 (BRD9 [6]; read-out: BRD9 degradation mouse cells (24 h), concentration) | IC50 (CYP 2E1) | in-vivo BRD9 degradation, western blot (BRD9 [7]) | IC50 (CYP 2C9) | IC50 (CYP 2C19; 2C19, first of two values in brackets, read-out: CYP TDI 2C19, first value) | IC50 (CYP 2C19; 2C19, second of two values in brackets, read-out: CYP TDI 2C19, second value) | DC50 (GSPT1) | degradation of BRD9 versus BRD4 and BRD7, western blot (BRD9 [8])
1 | COc1cc(-c2cn(C)c(=O)c(C)c2C)cc(OC)c1CN1CCC(N2CCN(c3ccc(NC4CCC(=O)NC4=O)cc3F)CC2)C(F)(F)C1 (single isomer, unassigned) [Compound 176, 3-[4-[4-[1-[[2,6-dimethoxy-4-(1,4,5-trimethyl-6-oxo-3-pyridyl)phenyl]methyl]-3,3-difluoro-4-piperidyl]piperazin-1-yl]-3-fluoro-anilino]piperidine-2,6-dione] | lack of growth inhibition | dose dependent degradation of alpha BRD9 | Less than 15% |  |  |  |  |  |  |  |  |  |  |  |  |  | 
2 | COc1cc(-c2cn(C)c(=O)c(C)c2C)cc(OC)c1CN1CCC(N2CCN(c3ccc(NC4CCC(=O)NC4=O)cc3F)CC2)C(F)(F)C1 (centres unmarked) [Compound 172, 3-[4-[4-[1-[[2,6-dimethoxy-4-(1,4,5-trimethyl-6-oxo-3-pyridyl)phenyl]methyl]-3,3-difluoro-4-piperidyl]piperazin-1-yl]-3-fluoro-anilino]piperidine-2,6-dione] |  |  |  | 53% | 1 µM | 0.082 µM | 30 µM | no appreciable tumor growth | 36% | 0.099 µM | 30 µM | dose dependent in-vivo BRD9 degradation | 30 µM | > 50 µM | 24 µM | > 9.99 µM | dose response degradation specific to BRD9, and not bromodomain containing proteins BRD4 and BRD7
